Test results published in article PMC10088252.

Protocol: Dose adjustment was allowed according to the severity of toxicity [Supplementary Table 1].
The primary endpoints were safety, ORR and DCR assessed by investigators. […] AEs referred to treatment-emergent adverse events (TEAEs) and TRAEs were assessed by investigators. Serious adverse events (SAEs) referred to AEs meeting at least one of the following criteria: event leading to death; life-threatening event; event requiring hospitalization or extension of hospital stay; event leading to persistent or evident disability or dysfunction; event leading to congenital malformation or birth defect or event which might lead to injury or that need medical treatment to avoid the above mentioned important medical events.

O=C(Nc1ccc(Oc2ccnc3c2CCN3)c(F)c1)c1c[nH]cc(-c2ccc(F)cc2)c1=O
TRAE Insomnia, any grade (300 mg QD (n=12)): 1 (8.3) n (%)
TRAE Insomnia, grade 3-4 (300 mg QD (n=12)): 0 n (%)
TRAE Leukopenia, any grade (300 mg QD (n=12)): 0 n (%)
TRAE Leukopenia, grade 3-4 (300 mg QD (n=12)): 0 n (%)
TRAE Nausea, any grade (300 mg QD (n=12)): 3 (25.0) n (%)
TRAE Nausea, grade 3-4 (300 mg QD (n=12)): 0 n (%)
TRAE Neuritis, any grade (300 mg QD (n=12)): 0 n (%)
TRAE Neuritis, grade 3-4 (300 mg QD (n=12)): 0 n (%)
TRAE Occult blood, any grade (300 mg QD (n=12)): 0 n (%)
TRAE Occult blood, grade 3-4 (300 mg QD (n=12)): 0 n (%)
TRAE Oedema peripheral, any grade (300 mg QD (n=12)): 0 n (%)
TRAE Oedema peripheral, grade 3-4 (300 mg QD (n=12)): 0 n (%)
TRAE Onycholysis, any grade (300 mg QD (n=12)): 0 n (%)
TRAE Onycholysis, grade 3-4 (300 mg QD (n=12)): 0 n (%)
TRAE Oropharyngeal pain, any grade (300 mg QD (n=12)): 0 n (%)
TRAE Oropharyngeal pain, grade 3-4 (300 mg QD (n=12)): 0 n (%)
TRAE PPE, any grade (300 mg QD (n=12)): 1 (8.3) n (%)
TRAE PPE, grade 3-4 (300 mg QD (n=12)): 0 n (%)
TRAE Paraesthesia, any grade (300 mg QD (n=12)): 0 n (%)
TRAE Paraesthesia, grade 3-4 (300 mg QD (n=12)): 0 n (%)
TRAE Proteinuria, any grade (300 mg QD (n=12)): 0 n (%)
TRAE Proteinuria, grade 3-4 (300 mg QD (n=12)): 0 n (%)
TRAE Pruritus, any grade (300 mg QD (n=12)): 0 n (%)
TRAE Pruritus, grade 3-4 (300 mg QD (n=12)): 0 n (%)
TRAE Rash maculo-papular, any grade (300 mg QD (n=12)): 1 (8.3) n (%)
TRAE Rash maculo-papular, grade 3-4 (300 mg QD (n=12)): 0 n (%)
TRAE Sinus tachycardia, any grade (300 mg QD (n=12)): 0 n (%)
TRAE Sinus tachycardia, grade 3-4 (300 mg QD (n=12)): 0 n (%)
TRAE Skin fissures, any grade (300 mg QD (n=12)): 0 n (%)
TRAE Skin fissures, grade 3-4 (300 mg QD (n=12)): 0 n (%)
TRAE Supraventricular extrasystoles, any grade (300 mg QD (n=12)): 0 n (%)
TRAE Supraventricular extrasystoles, grade 3-4 (300 mg QD (n=12)): 0 n (%)
TRAE Thrombocytopenia, any grade (300 mg QD (n=12)): 0 n (%)
TRAE Thrombocytopenia, grade 3-4 (300 mg QD (n=12)): 0 n (%)
TRAE Upper respiratory tract infection, any grade (300 mg QD (n=12)): 1 (8.3) n (%)
TRAE Upper respiratory tract infection, grade 3-4 (300 mg QD (n=12)): 0 n (%)
TRAE Urinary retention, any grade (300 mg QD (n=12)): 0 n (%)
TRAE Urinary retention, grade 3-4 (300 mg QD (n=12)): 0 n (%)
TRAE Urinary tract infection, any grade (300 mg QD (n=12)): 0 n (%)
TRAE Urinary tract infection, grade 3-4 (300 mg QD (n=12)): 0 n (%)
TRAE Ventricular arrhythmia, any grade (300 mg QD (n=12)): 1 (8.3) n (%)
TRAE Ventricular arrhythmia, grade 3-4 (300 mg QD (n=12)): 0 n (%)
TRAE Ventricular extrasystoles, any grade (300 mg QD (n=12)): 1 (8.3) n (%)
TRAE Ventricular extrasystoles, grade 3-4 (300 mg QD (n=12)): 0 n (%)
TRAE Vomiting, any grade (300 mg QD (n=12)): 0 n (%)
TRAE Vomiting, grade 3-4 (300 mg QD (n=12)): 0 n (%)
TRAE Weight loss, any grade (300 mg QD (n=12)): 0 n (%)
TRAE Weight loss, grade 3-4 (300 mg QD (n=12)): 0 n (%)
TRAE Accessory nerve disorder, any grade (400 mg BID (n=4)): 0 n (%)
TRAE Accessory nerve disorder, grade 3-4 (400 mg BID (n=4)): 0 n (%)
TRAE Activated partial thromboplastin time prolonged, any grade (400 mg BID (n=4)): 0 n (%)
TRAE Activated partial thromboplastin time prolonged, grade 3-4 (400 mg BID (n=4)): 0 n (%)
TRAE Anaemia, any grade (400 mg BID (n=4)): 0 n (%)
TRAE Anaemia, grade 3-4 (400 mg BID (n=4)): 0 n (%)
TRAE Anaesthesia oral, any grade (400 mg BID (n=4)): 0 n (%)
TRAE Anaesthesia oral, grade 3-4 (400 mg BID (n=4)): 0 n (%)
TRAE Arrhythmia, any grade (400 mg BID (n=4)): 0 n (%)
TRAE Arrhythmia, grade 3-4 (400 mg BID (n=4)): 0 n (%)
TRAE Arthralgia, any grade (400 mg BID (n=4)): 0 n (%)
TRAE Arthralgia, grade 3-4 (400 mg BID (n=4)): 0 n (%)
TRAE Asthenia, any grade (400 mg BID (n=4)): 0 n (%)
TRAE Asthenia, grade 3-4 (400 mg BID (n=4)): 0 n (%)
TRAE Blister, any grade (400 mg BID (n=4)): 0 n (%)
TRAE Blister, grade 3-4 (400 mg BID (n=4)): 0 n (%)
TRAE Chest discomfort, any grade (400 mg BID (n=4)): 0 n (%)
TRAE Chest discomfort, grade 3-4 (400 mg BID (n=4)): 0 n (%)
TRAE Chronic kidney disease, any grade (400 mg BID (n=4)): 0 n (%)
TRAE Chronic kidney disease, grade 3-4 (400 mg BID (n=4)): 0 n (%)
TRAE Constipation, any grade (400 mg BID (n=4)): 0 n (%)
TRAE Constipation, grade 3-4 (400 mg BID (n=4)): 0 n (%)
TRAE Cough, any grade (400 mg BID (n=4)): 0 n (%)
TRAE Cough, grade 3-4 (400 mg BID (n=4)): 0 n (%)
TRAE Decreased Ccr, any grade (400 mg BID (n=4)): 0 n (%)
TRAE Decreased Ccr, grade 3-4 (400 mg BID (n=4)): 0 n (%)
TRAE Decreased appetite, any grade (400 mg BID (n=4)): 0 n (%)
TRAE Decreased appetite, grade 3-4 (400 mg BID (n=4)): 0 n (%)
TRAE Diarrhoea, any grade (400 mg BID (n=4)): 0 n (%)
TRAE Diarrhoea, grade 3-4 (400 mg BID (n=4)): 0 n (%)
TRAE Dizziness, any grade (400 mg BID (n=4)): 0 n (%)
TRAE Dizziness, grade 3-4 (400 mg BID (n=4)): 0 n (%)
TRAE Dry mouth, any grade (400 mg BID (n=4)): 0 n (%)
TRAE Dry mouth, grade 3-4 (400 mg BID (n=4)): 0 n (%)
TRAE Dysgeusia, any grade (400 mg BID (n=4)): 0 n (%)
TRAE Dysgeusia, grade 3-4 (400 mg BID (n=4)): 0 n (%)
